IC50 data for 13 compounds are collected here from patent US12172983B2, “EGFR inhibitors” (Blueprint Medicines Corporation, priority 2019, dated 2024).

One assay addresses T1, EGFR (L858R T790M C797S) (Homo sapiens, UniProt P00533, C797S/L858R/T790M).
T1 construct: purchased SignalChem E10-122VG
The assay can be described thus: Biochemical EGFR inhibition assay (Caliper mobility shift), EGFR LRTMCS mutant. As to conditions: inhibitory activity against EGFR LRTMCS mutant; apparent IC50; read-out: Ext Enz LRTMCS. A digest of the protocol: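 Apparent IC50s were derived by plotting percent activity against the log of compound concentration. Activity was measured as phosphopeptide electrophoretically separated from substrate, after reactions at room temperature reached 10% to 20% phosphorylation and were halted with 35 mM EDTA.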

Assay [1] has as its target T2, EGFR (D770_N771insNPG T790M) (Homo sapiens, UniProt P00533, INS770NPG/T790M).
T2 construct: purchased SignalChem E10-132TG
As to the kind of experiment: Biochemical EGFR inhibition assay (mobility shift), EGFR D770_N771insNPG T790M. As to conditions: inhibitory activity against EGFR_D770_N771insNPG/T790M mutant; apparent IC50; read-out: Enz EGFR_D770_N771insNPG/T790M. How it is done: Inhibitory effects of the compounds of the disclosure were measured in biochemical assays that measure the phosphorylation activity of EGFR enzyme phosphorylates 2.5 micromolar 5-FAM-[…]-CONH2 peptide substrate (FL-Peptide 22, PerkinElmer, 760366) in the presence of adenosine-5′-triphosphate (ATP) and varying concentrations of the test compound. […] Reactions proceeded until between 10% to 20% total peptides were phosphorylated at room temperature (25° C.) and were terminated with 35 mM 2,2′,2″,2′″-(ethane-1,2-diyldinitrilo)tetraacetic acid (EDTA). EGFR enzymatic activity was monitored using the Perkin Elmer electrophoretic mobility shift technology platform (the Caliper mobility shift detection method) where the phosphorylated peptide (product) and substrate were electrophoretically separated and measured. Percent activity was plotted against log concentration of compound and points to generate an apparent IC50. The following enzyme forms of EGFR were examples that were used in these assays: • EGFR WT (SignalChem, E10-112G) • EGFR (L858R T790M C797S) (SignalChem, E10-122VG) • EGFR (d746-750) T790M C797S (SignalChem, E10-122UG) • EGFR L858R (SignalChem, E10-122BG) • EGFR (d746-750) (SignalChem, E10-122JG) • EGFR (D770_N771insNPG T790M) (SignalChem, E10-132TG) • EGFR (D770_N771insNPG) (SignalChem, E10-132GG)

In assay [2] the test system is phosphorylation of EGFR (Tyr1068) in NCI-H1975 cell line that harbors the EGFR L858R T790M mutations. As to the kind of experiment: NCI-H1975 pEGFR AlphaLISA assay. The class given is cell-based. As to conditions: Homo sapiens, NCI-H1975, inhibition of phosphorylation of mutant EGFR in NCI-H1975 cells; 4-5 hours incubation; read-out: Ext pEGFR H1975. A digest of the protocol:
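Phospho-EGFR Tyr1068 AlphaLISA readout: lysates taken from compound-treated H1975 cells (L858R T790M EGFR) after a 4-5 h exposure at 37 °C. Cells had adhered overnight beforehand. IC50 derived by plotting % pEGFR inhibition against log compound concentration.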
For orientation: In Alpha technology, singlet oxygen from a donor bead excites a nearby acceptor bead.

Assay [3] concerns pEGFR_LR/TM/G796S mutant EGFR expressing Ba/F3 cells. As to the kind of experiment: pEGFR_LR/TM/G796S AlphaLISA assay in Ba/F3 cells. It is filed as cell-based. As to conditions: Mus musculus, BaF3, 4 hrs incubation, geometric mean, read-out: Ext pEGFR_LR/TM/G796S GMean IC50. Here is the method:
Mutant EGFR expressing Ba/F3 cells were resuspended in fresh 10% FBS RPMI and plated at 1.0×10^6 cells/mL. On the next day, the cells were harvested and diluted in fresh medium at 1.25×10^6 cells/mL. 40 μL of cells were added to each well of a 384-well microplate (Corning 3764). In a clear 384-well polypropylene microplate, test compounds and DMSO were added. DMSO was a negative control and staurosporine was a positive control. The cell plate was placed in a humidified 37° C. incubator for 4 hrs. The cell plate was spun to pellet the cells and the media was removed. 10 μL of 1×AlphaLISA Lysis Buffer with 1× protease and phosphatase inhibitors was added to the cells and plate was shaken at 600 rpm for 30 min. The cell lysates were transferred from cell plate to a white opaque 384-well microplate (OptiPlate-384). 5 μL of acceptor mix was added to the cell lysate and the plate was shaken at 600 rpm for 10 min, gently tapped and sealed with foil. It was then incubated at RT for 1.5-2 hr. Under low light conditions, lx donor mix was prepared right prior to use. 5 μL of donor mix was added to the plate under subdued lighting or green filters. The plate was shaken at 600 rpm for 10 min, gently tapped and sealed with foil. It was then incubated overnight at RT in dark. After overnight incubation, the plate was read on an EnVision Multilabel Reader. All IC50 representative curves were plotted using GraphPad Prism (version 8.00 for Windows, GraphPad Software, San Diego California USA). The percentage of inhibition on EGFR phosphorylation was calculated following equation below: […]
An IC50 was calculated by fitting the curve using Nonliner fit with log(inhibitor) vs. response−Variable slope (four parameters) model.

T2 sequence (P00533 with tags, fused parts or gaps INS770NPG/T790M limits assumed): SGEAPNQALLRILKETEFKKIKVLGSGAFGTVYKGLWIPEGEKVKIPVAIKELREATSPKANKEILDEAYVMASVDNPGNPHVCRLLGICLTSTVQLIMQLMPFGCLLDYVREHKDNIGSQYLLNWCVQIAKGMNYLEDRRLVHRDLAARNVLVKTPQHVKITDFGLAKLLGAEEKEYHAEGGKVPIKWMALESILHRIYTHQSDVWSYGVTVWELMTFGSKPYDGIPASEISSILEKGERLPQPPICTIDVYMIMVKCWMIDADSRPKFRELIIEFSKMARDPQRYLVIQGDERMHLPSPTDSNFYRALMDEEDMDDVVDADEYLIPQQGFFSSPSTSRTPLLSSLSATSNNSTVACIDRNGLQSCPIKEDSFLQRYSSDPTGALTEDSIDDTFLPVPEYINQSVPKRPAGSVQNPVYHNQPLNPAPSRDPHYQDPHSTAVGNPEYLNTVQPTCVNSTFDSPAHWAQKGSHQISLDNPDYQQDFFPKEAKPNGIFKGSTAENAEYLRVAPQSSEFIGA
T1 sequence (P00533 25-1210 T790M/C797S/L858R): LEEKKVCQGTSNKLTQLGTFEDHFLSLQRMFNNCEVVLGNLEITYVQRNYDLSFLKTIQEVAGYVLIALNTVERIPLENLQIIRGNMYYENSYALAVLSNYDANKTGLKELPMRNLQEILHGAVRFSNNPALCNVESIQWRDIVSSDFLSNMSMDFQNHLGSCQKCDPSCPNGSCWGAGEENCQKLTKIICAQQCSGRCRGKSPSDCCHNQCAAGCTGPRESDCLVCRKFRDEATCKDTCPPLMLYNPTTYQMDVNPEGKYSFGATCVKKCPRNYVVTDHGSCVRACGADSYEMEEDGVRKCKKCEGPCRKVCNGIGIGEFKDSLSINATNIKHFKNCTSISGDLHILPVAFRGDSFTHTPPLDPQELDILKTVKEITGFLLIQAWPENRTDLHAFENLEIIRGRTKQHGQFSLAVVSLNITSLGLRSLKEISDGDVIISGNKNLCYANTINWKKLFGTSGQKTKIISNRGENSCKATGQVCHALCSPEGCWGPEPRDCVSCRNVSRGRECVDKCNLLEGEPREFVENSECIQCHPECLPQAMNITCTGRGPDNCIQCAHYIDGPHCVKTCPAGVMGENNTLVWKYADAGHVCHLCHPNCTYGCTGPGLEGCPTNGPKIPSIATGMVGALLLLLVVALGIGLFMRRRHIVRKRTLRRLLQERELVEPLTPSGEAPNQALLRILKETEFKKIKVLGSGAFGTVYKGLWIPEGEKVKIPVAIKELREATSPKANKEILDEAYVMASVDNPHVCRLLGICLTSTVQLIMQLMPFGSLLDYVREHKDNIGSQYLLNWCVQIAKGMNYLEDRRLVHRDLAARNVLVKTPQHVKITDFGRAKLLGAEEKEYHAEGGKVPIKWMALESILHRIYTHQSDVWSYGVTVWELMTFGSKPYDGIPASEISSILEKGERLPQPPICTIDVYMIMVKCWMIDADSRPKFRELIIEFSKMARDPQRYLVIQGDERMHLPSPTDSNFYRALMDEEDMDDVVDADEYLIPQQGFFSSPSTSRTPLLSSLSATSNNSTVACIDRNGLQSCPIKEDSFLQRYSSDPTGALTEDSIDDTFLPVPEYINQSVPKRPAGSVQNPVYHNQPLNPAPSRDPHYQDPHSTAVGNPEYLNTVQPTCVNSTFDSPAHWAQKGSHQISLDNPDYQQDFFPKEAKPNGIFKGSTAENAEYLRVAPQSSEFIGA

With `CC(C)c1cnc(N2CC(CS(C)(=O)=O)C2)c2cnc(Nc3ccnc(N4CCOCC4)n3)cc12` [Compound 2, 8-[3-(methanesulfonylmethyl)azetidin-1-yl]-N-[2-(morpholin-4-yl)pyrimidin-4-yl]-5-(propan-2-yl)-2,7-naphthyridin-3-amine], the IC50 was at most 0.015 µM at EGFR (L858R T790M C797S), 0.25 to 0.75 µM in assay [1] and 0.0301 to 0.05 µM in assay [2].
Turning to `[2H]C([2H])([2H])O[C@@H]1CCN(c2nccc(Nc3cc4c(C(C)C)ncc(N5CC(CS(C)(=O)=O)C5)c4cn3)n2)C[C@@H]1F` [Compound 265, N-{2-[(3S,4R)-3-fluoro-4-(^2H3)methoxypiperidin-1-yl]pyrimidin-4-yl}-8-[3-(methanesulfonylmethyl)azetidin-1-yl]-5-(propan-2-yl)-2,6-naphthyridin-3-amine], the results for the IC50 (on EGFR (L858R T790M C797S); in assay [1]; in assay [2]) were at most 0.015 µM, 0.1 to 0.25 µM and at most 0.01 µM, respectively.
In the same order, the values of `CC(C)c1cnc(N2CC(CS(C)(=O)=O)C2)c2cnc(Nc3ccnc(N4C[C@@H](F)[C@@H](F)C4)n3)cc12` [Compound 7, N-{2-[cis-3,4-difluoropyrrolidin-1-yl]pyrimidin-4-yl}-8-[3-(methanesulfonylmethyl)azetidin-1-yl]-5-(propan-2-yl)-2,7-naphthyridin-3-amine] are at most 0.015 µM, 0.25 to 0.75 µM and 0.0101 to 0.02 µM.
As to `CC(C)c1ccc(N2C[C@H](CS(C)(=O)=O)[C@H]2C)c2cnc(Nc3ccnc(N4CC[C@@H](O)[C@@](C)(F)C4)n3)cc12` (single isomer, unassigned) [Compound 111], the values for the IC50 in assay [3] and in assay [2] were 0.0201 to 0.1 µM and at most 0.01 µM, respectively.
In the same order, the values of `CC(C)c1ccc(N2CC(CS(C)(=O)=O)C2)c2cnc(Nc3ccnc(N4CC[C@@H](O)[C@@](C)(F)C4)n3)cc12` (single isomer, unassigned) [Compound 55] are at most 0.02 µM and at most 0.01 µM.
Regarding `CC(C)c1ccc(N2C[C@H](CS(C)(=O)=O)[C@H]2C)c2cnc(Nc3ccnc(N4CC[C@](C)(O)[C@H](F)C4)n3)cc12` (single isomer, unassigned) [Compound 118], the IC50 in assay [3] is 0.25 to 0.75 µM; on EGFR (L858R T790M C797S), at most 0.015 µM; in assay [2] it was at most 0.01 µM.
For the compound `[2H]C([2H])([2H])O[C@H]1CCN(c2nccc(Nc3cc4c(C(C)C)ccc(N5C[C@H](CS(C)(=O)=O)[C@H]5C)c4cn3)n2)C[C@H]1F` (single isomer, unassigned) [Compound 283], the IC50 in assay [3] is 0.0201 to 0.1 µM; in assay [2], at most 0.01 µM.
Turning to `CC(C)c1ccc(N2C[C@H](CS(C)(=O)=O)[C@H]2C)c2cnc(Nc3ccnc(N4CC[C@@](C)(O)[C@@H](F)C4)n3)cc12` (single isomer, unassigned) [Compound 117], the IC50 was 0.25 to 0.75 µM in assay [3], at most 0.015 µM at EGFR (L858R T790M C797S) and at most 0.01 µM in assay [2].
With `[2H]C([2H])([2H])O[C@@H]1CCN(c2nccc(Nc3cc4c(C(C)C)ccc(N5C[C@H](CS(C)(=O)=O)[C@H]5C)c4cn3)n2)C[C@@H]1F` (single isomer, unassigned) [Compound 282], the IC50 in assay [3] is 0.0201 to 0.1 µM; in assay [2], at most 0.01 µM.
Consider `CC(C)c1cnc(N2C[C@@H](CS(C)(=O)=O)[C@@H]2C)c2cnc(Nc3ccnc(N4CC[C@@H](O)[C@@](C)(F)C4)n3)cc12` (single isomer, unassigned) [Compound 128], for which the results for the IC50 (at EGFR (L858R T790M C797S); in assay [1]; in assay [2]) were at most 0.015 µM, 0.0201 to 0.1 µM and at most 0.01 µM, respectively.
For the compound `CO[C@@H]1CCN(c2nccc(Nc3cc4c(C(C)C)ccc(N5CC(CS(C)(=O)=O)C5)c4cn3)n2)CC1(F)F` (single isomer, unassigned) [Compound 159], the IC50 at EGFR (L858R T790M C797S) lay in the range of 0.0151 to 0.02 µM; in assay [2] it was 0.0201 to 0.03 µM.
As for `CO[C@@H]1CCN(c2nccc(Nc3cc4c(C(C)C)ccc(N5C[C@H](CS(C)(=O)=O)[C@H]5C)c4cn3)n2)C[C@H]1C#N` (single isomer, unassigned) [Compound 166, (3S,4R)-1-[4-({8-[(2R,3S)-3-(methanesulfonylmethyl)-2-methylazetidin-1-yl]-5-(propan-2-yl)isoquinolin-3-yl}amino)pyrimidin-2-yl]-4-methoxypiperidine-3-carbonitrile or (3R,4S)-1-[4-({8-[(2R,3S)-3-(methanesulfonylmethyl)-2-methylazetidin-1-yl]-5-(propan-2-yl)isoquinolin-3-yl}amino)pyrimidin-2-yl]-4-methoxypiperidine-3-carbonitrile], the IC50 on EGFR (L858R T790M C797S) fell in the range of 0.0301 to 0.1 µM; in assay [2] it was 0.0301 to 0.05 µM.
Turning to `CCOc1cnc(N2CC(CS(C)(=O)=O)C2)c2cnc(Nc3ccnc(N4CC[C@@H](O)[C@@](C)(F)C4)n3)cc12` (single isomer, unassigned) [Compound 80], the IC50 at EGFR (L858R T790M C797S) was at most 0.015 µM; in assay [2], 0.0301 to 0.05 µM.
